Reference: paper PMC10946806, “Development of Bifunctional, Raman Active Diyne‐Girder Stapled α‐Helical Peptides” (Chemistry (Weinheim an Der Bergstrasse, Germany), 2023)

Legend:
[1] = Circular dichroism (CD) spectroscopy, % helicity; assay type: physicochemical; settings: for percentage helicity (in words): peptide 50 μM in PBS pH 7.4, 222 nm
Protocol: Circular dichroism (CD): CD spectra were obtained using a JASCO J-810 CD spectrometer. […] Percentage helicities can be calculated for α-helical peptides. […] […] Equation S1. MRE calculation. […] To 100 μL of peptide solution was added 100 11

[2] = on-resin Glaser oxidative coupling of two terminal alkynes (i,i+7 side chains) to 1,3-diyne; CuCl 5 eq, 4,4'-bis(hydroxymethyl)-2,2'-bipyridine 7.5 eq, DIPEA 20 eq, microwave; settings: the molecule shown is the open-chain precursor, DMF, 10.0 mM, 60.0 °C, 3.0 h

FTU-Ahx-AKR8YAR(Nle)GRS8LKEIAK-NH2 (sidechain bridge or staple) [compound 35, diyne-girder stapled T-STAR peptide, C16 bridge, RS]
percentage helicity (in words) [1]: high

C#CCCCCCC[C@](C)(NC(=O)[C@H](CCCCNC(=O)OC(C)(C)C)NC(=O)[C@H](C)NC(=O)CCCCCNC(=O)OCC1c2ccccc2-c2ccccc21)C(=O)N[C@@H](Cc1ccc(OC(C)(C)C)cc1)C(=O)N[C@@H](C)C(=O)N[C@@H](CCCNC(=N)NS(=O)(=O)c1c(C)c(C)c2c(c1C)CC(C)(C)O2)C(=O)N[C@@H](CCCC)C(=O)NCC(=O)N[C@@H](CCCNC(=N)NS(=O)(=O)c1c(C)c(C)c2c(c1C)CC(C)(C)O2)C(=O)N[C@@](C)(CCCCCCC#C)C(=O)N[C@@H](CC(C)C)C(=O)N[C@@H](CCCCNC(=O)OC(C)(C)C)C(=O)N[C@@H](CCC(=O)OC(C)(C)C)C(=O)N[C@H](C(=O)N[C@@H](C)C(=O)N[C@@H](CCCCNC(=O)OC(C)(C)C)C(N)=O)[C@@H](C)CC
ring closure, conversion by HPLC ([2]; 38-membered ring): 100%

FTU-Ahx-AKS8YAR(Nle)GRS8LKEIAK-NH2 (sidechain bridge or staple) [compound 33, diyne-girder stapled T-STAR peptide, C16 bridge, SS]
percentage helicity (in words) [1]: high

C#CCCCCC[C@@](C)(NC(=O)[C@H](CCCNC(=N)NS(=O)(=O)c1c(C)c(C)c2c(c1C)CC(C)(C)O2)NC(=O)CNC(=O)[C@H](CCCC)NC(=O)[C@H](CCCNC(=N)NS(=O)(=O)c1c(C)c(C)c2c(c1C)CC(C)(C)O2)NC(=O)[C@H](C)NC(=O)[C@H](Cc1ccc(OC(C)(C)C)cc1)NC(=O)[C@](C)(CCCCCC#C)NC(=O)[C@H](CCCCNC(=O)OC(C)(C)C)NC(=O)[C@H](C)NC(=O)CCCCCNC(=O)OCC1c2ccccc2-c2ccccc21)C(=O)N[C@@H](CC(C)C)C(=O)N[C@@H](CCCCNC(=O)OC(C)(C)C)C(=O)N[C@@H](CCC(=O)OC(C)(C)C)C(=O)N[C@H](C(=O)N[C@@H](C)C(=O)N[C@@H](CCCCNC(=O)OC(C)(C)C)C(N)=O)[C@@H](C)CC
ring closure, conversion by HPLC ([2]; 36-membered ring): 52%

C#CCCC[C@](C)(NC(=O)[C@H](CCCCNC(=O)OC(C)(C)C)NC(=O)[C@H](C)NC(=O)CCCCCNC(=O)OCC1c2ccccc2-c2ccccc21)C(=O)N[C@@H](Cc1ccc(OC(C)(C)C)cc1)C(=O)N[C@@H](C)C(=O)N[C@@H](CCCNC(=N)NS(=O)(=O)c1c(C)c(C)c2c(c1C)CC(C)(C)O2)C(=O)N[C@@H](CCCC)C(=O)NCC(=O)N[C@@H](CCCNC(=N)NS(=O)(=O)c1c(C)c(C)c2c(c1C)CC(C)(C)O2)C(=O)N[C@@](C)(CCCC#C)C(=O)N[C@@H](CC(C)C)C(=O)N[C@@H](CCCCNC(=O)OC(C)(C)C)C(=O)N[C@@H](CCC(=O)OC(C)(C)C)C(=O)N[C@H](C(=O)N[C@@H](C)C(=O)N[C@@H](CCCCNC(=O)OC(C)(C)C)C(N)=O)[C@@H](C)CC
ring closure, conversion by HPLC ([2]; 32-membered ring): 52%

C#CCCCC[C@](C)(NC(=O)[C@H](CCCCNC(=O)OC(C)(C)C)NC(=O)[C@H](C)NC(=O)CCCCCNC(=O)OCC1c2ccccc2-c2ccccc21)C(=O)N[C@@H](Cc1ccc(OC(C)(C)C)cc1)C(=O)N[C@@H](C)C(=O)N[C@@H](CCCNC(=N)NS(=O)(=O)c1c(C)c(C)c2c(c1C)CC(C)(C)O2)C(=O)N[C@@H](CCCC)C(=O)NCC(=O)N[C@@H](CCCNC(=N)NS(=O)(=O)c1c(C)c(C)c2c(c1C)CC(C)(C)O2)C(=O)N[C@@](C)(CCCCC#C)C(=O)N[C@@H](CC(C)C)C(=O)N[C@@H](CCCCNC(=O)OC(C)(C)C)C(=O)N[C@@H](CCC(=O)OC(C)(C)C)C(=O)N[C@H](C(=O)N[C@@H](C)C(=O)N[C@@H](CCCCNC(=O)OC(C)(C)C)C(N)=O)[C@@H](C)CC
ring closure, conversion by HPLC ([2]; 34-membered ring): 65%

C#CCCCCCC[C@@](C)(NC(=O)[C@H](CCCNC(=N)NS(=O)(=O)c1c(C)c(C)c2c(c1C)CC(C)(C)O2)NC(=O)CNC(=O)[C@H](CCCC)NC(=O)[C@H](CCCNC(=N)NS(=O)(=O)c1c(C)c(C)c2c(c1C)CC(C)(C)O2)NC(=O)[C@H](C)NC(=O)[C@H](Cc1ccc(OC(C)(C)C)cc1)NC(=O)[C@](C)(CCCCCCC#C)NC(=O)[C@H](CCCCNC(=O)OC(C)(C)C)NC(=O)[C@H](C)NC(=O)CCCCCNC(=O)OCC1c2ccccc2-c2ccccc21)C(=O)N[C@@H](CC(C)C)C(=O)N[C@@H](CCCCNC(=O)OC(C)(C)C)C(=O)N[C@@H](CCC(=O)OC(C)(C)C)C(=O)N[C@H](C(=O)N[C@@H](C)C(=O)N[C@@H](CCCCNC(=O)OC(C)(C)C)C(N)=O)[C@@H](C)CC
ring closure, conversion by HPLC ([2]; 38-membered ring): 68%

C#CCCCCC[C@](C)(NC(=O)[C@H](CCCCNC(=O)OC(C)(C)C)NC(=O)[C@H](C)NC(=O)CCCCCNC(=O)OCC1c2ccccc2-c2ccccc21)C(=O)N[C@@H](Cc1ccc(OC(C)(C)C)cc1)C(=O)N[C@@H](C)C(=O)N[C@@H](CCCNC(=N)NS(=O)(=O)c1c(C)c(C)c2c(c1C)CC(C)(C)O2)C(=O)N[C@@H](CCCC)C(=O)NCC(=O)N[C@@H](CCCNC(=N)NS(=O)(=O)c1c(C)c(C)c2c(c1C)CC(C)(C)O2)C(=O)N[C@@](C)(CCCCCC#C)C(=O)N[C@@H](CC(C)C)C(=O)N[C@@H](CCCCNC(=O)OC(C)(C)C)C(=O)N[C@@H](CCC(=O)OC(C)(C)C)C(=O)N[C@H](C(=O)N[C@@H](C)C(=O)N[C@@H](CCCCNC(=O)OC(C)(C)C)C(N)=O)[C@@H](C)CC
ring closure, conversion by HPLC ([2]; 36-membered ring): 100%

FTU-Ahx-AKS7YAR(Nle)GRR7LKEIAK-NH2 (sidechain bridge or staple) [compound 32, diyne-girder stapled T-STAR peptide, C14 bridge, SR]
percentage helicity at 222 nm from mean residue ellipticity ([1]; peptide 50 μM in PBS pH 7.4, room temperature, MRE at 222 nm converted by Equation S2): 54%

FTU-Ahx-AKS8YAR(Nle)GRR8LKEIAK-NH2 (sidechain bridge or staple) [compound 36, diyne-girder stapled T-STAR peptide, C16 bridge, SR]
percentage helicity (in words) [1]: high

C#CCCCCCC[C@@](C)(NC(=O)[C@H](CCCCNC(=O)OC(C)(C)C)NC(=O)[C@H](C)NC(=O)CCCCCNC(=O)OCC1c2ccccc2-c2ccccc21)C(=O)N[C@@H](Cc1ccc(OC(C)(C)C)cc1)C(=O)N[C@@H](C)C(=O)N[C@@H](CCCNC(=N)NS(=O)(=O)c1c(C)c(C)c2c(c1C)CC(C)(C)O2)C(=O)N[C@@H](CCCC)C(=O)NCC(=O)N[C@@H](CCCNC(=N)NS(=O)(=O)c1c(C)c(C)c2c(c1C)CC(C)(C)O2)C(=O)N[C@@](C)(CCCCCCC#C)C(=O)N[C@@H](CC(C)C)C(=O)N[C@@H](CCCCNC(=O)OC(C)(C)C)C(=O)N[C@@H](CCC(=O)OC(C)(C)C)C(=O)N[C@H](C(=O)N[C@@H](C)C(=O)N[C@@H](CCCCNC(=O)OC(C)(C)C)C(N)=O)[C@@H](C)CC
ring closure, conversion by HPLC ([2]; 38-membered ring): 100%

C#CCCCCC[C@@](C)(NC(=O)[C@H](CCCCNC(=O)OC(C)(C)C)NC(=O)[C@H](C)NC(=O)CCCCCNC(=O)OCC1c2ccccc2-c2ccccc21)C(=O)N[C@@H](Cc1ccc(OC(C)(C)C)cc1)C(=O)N[C@@H](C)C(=O)N[C@@H](CCCNC(=N)NS(=O)(=O)c1c(C)c(C)c2c(c1C)CC(C)(C)O2)C(=O)N[C@@H](CCCC)C(=O)NCC(=O)N[C@@H](CCCNC(=N)NS(=O)(=O)c1c(C)c(C)c2c(c1C)CC(C)(C)O2)C(=O)N[C@@](C)(CCCCCC#C)C(=O)N[C@@H](CC(C)C)C(=O)N[C@@H](CCCCNC(=O)OC(C)(C)C)C(=O)N[C@@H](CCC(=O)OC(C)(C)C)C(=O)N[C@H](C(=O)N[C@@H](C)C(=O)N[C@@H](CCCCNC(=O)OC(C)(C)C)C(N)=O)[C@@H](C)CC
ring closure, conversion by HPLC ([2]; 36-membered ring): 94%

C#CCCCCCC[C@@](C)(NC(=O)[C@H](CCCCNC(=O)OC(C)(C)C)NC(=O)[C@H](C)NC(=O)CCCCCNC(=O)OCC1c2ccccc2-c2ccccc21)C(=O)N[C@@H](Cc1ccc(OC(C)(C)C)cc1)C(=O)N[C@@H](C)C(=O)N[C@@H](CCCNC(=N)NS(=O)(=O)c1c(C)c(C)c2c(c1C)CC(C)(C)O2)C(=O)N[C@@H](CCCC)C(=O)NCC(=O)N[C@@H](CCCNC(=N)NS(=O)(=O)c1c(C)c(C)c2c(c1C)CC(C)(C)O2)C(=O)N[C@](C)(CCCCCCC#C)C(=O)N[C@@H](CC(C)C)C(=O)N[C@@H](CCCCNC(=O)OC(C)(C)C)C(=O)N[C@@H](CCC(=O)OC(C)(C)C)C(=O)N[C@H](C(=O)N[C@@H](C)C(=O)N[C@@H](CCCCNC(=O)OC(C)(C)C)C(N)=O)[C@@H](C)CC
ring closure, conversion by HPLC ([2]; 38-membered ring): 93%

C#CCCCCC[C@H](NC(=O)[C@H](CCCNC(=N)NS(=O)(=O)c1c(C)c(C)c2c(c1C)CC(C)(C)O2)NC(=O)CNC(=O)[C@H](CCCC)NC(=O)[C@H](CCCNC(=N)NS(=O)(=O)c1c(C)c(C)c2c(c1C)CC(C)(C)O2)NC(=O)[C@H](C)NC(=O)[C@H](Cc1ccc(OC(C)(C)C)cc1)NC(=O)[C@H](CCCCCC#C)NC(=O)[C@H](CCCCNC(=O)OC(C)(C)C)NC(=O)[C@H](C)NC(=O)CCCCCNC(=O)OCC1c2ccccc2-c2ccccc21)C(=O)N[C@@H](CC(C)C)C(=O)N[C@@H](CCCCNC(=O)OC(C)(C)C)C(=O)N[C@@H](CCC(=O)OC(C)(C)C)C(=O)N[C@H](C(=O)N[C@@H](C)C(=O)N[C@@H](CCCCNC(=O)OC(C)(C)C)C(N)=O)[C@@H](C)CC
ring closure, conversion by HPLC ([2]; 36-membered ring): 38%

C#CCCCCC[C@@](C)(NC(=O)[C@H](CCCCNC(=O)OC(C)(C)C)NC(=O)[C@H](C)NC(=O)CCCCCNC(=O)OCC1c2ccccc2-c2ccccc21)C(=O)N[C@@H](Cc1ccc(OC(C)(C)C)cc1)C(=O)N[C@@H](C)C(=O)N[C@@H](CCCNC(=N)NS(=O)(=O)c1c(C)c(C)c2c(c1C)CC(C)(C)O2)C(=O)N[C@@H](CCCC)C(=O)NCC(=O)N[C@@H](CCCNC(=N)NS(=O)(=O)c1c(C)c(C)c2c(c1C)CC(C)(C)O2)C(=O)N[C@](C)(CCCCCC#C)C(=O)N[C@@H](CC(C)C)C(=O)N[C@@H](CCCCNC(=O)OC(C)(C)C)C(=O)N[C@@H](CCC(=O)OC(C)(C)C)C(=O)N[C@H](C(=O)N[C@@H](C)C(=O)N[C@@H](CCCCNC(=O)OC(C)(C)C)C(N)=O)[C@@H](C)CC
ring closure, conversion by HPLC ([2]; 36-membered ring): 68%
